# Reference: PubChem BioAssay (NCI)
#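 Abbreviation: GI50, concentration required for 50% inhibition of growth. TGI: total growth inhibition.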
# Experiments:
# Experiment in all cases: growth of human tumour cells (NCI), 384-well format
# HCC-2998 colon = tested on: HCC-2998 colon
# HCT-116 colon = tested on: HCT-116 colon
# CAKI-1 renal = tested on: CAKI-1 renal
# MDA-MB-231 breast = tested on: MDA-MB-231 breast
# NCI-H322M lung = tested on: NCI-H322M lung
# UO-31 renal = tested on: UO-31 renal
# M14 melanoma = tested on: M14 melanoma
# OVCAR-5 ovarian = tested on: OVCAR-5 ovarian
# U251 glioblastoma = tested on: U251 glioblastoma
# SF-539 CNS = tested on: SF-539 CNS
# HCT-15 colon = tested on: HCT-15 colon
# DU-145 prostate = tested on: DU-145 prostate
# RPMI-8226 leukemia = tested on: RPMI-8226 leukemia
# SK-MEL-5 melanoma = tested on: SK-MEL-5 melanoma
# SK-OV-3 ovarian = tested on: SK-OV-3 ovarian
# K-562 leukemia = tested on: K-562 leukemia
# BT-549 breast = tested on: BT-549 breast
# MDA-MB-435 melanoma = tested on: MDA-MB-435 melanoma
# TK-10 renal = tested on: TK-10 renal
# NCI-H460 NSCLC = tested on: NCI-H460 NSCLC
# LOX IMVI melanoma = tested on: LOX IMVI melanoma
# NCI-H522 lung = tested on: NCI-H522 lung
# NCI/ADR-RES ovarian = tested on: NCI/ADR-RES ovarian
# SW-620 colon = tested on: SW-620 colon
# T-47D breast = tested on: T-47D breast
# CCRF-CEM leukemia = tested on: CCRF-CEM leukemia
# A549 NSCLC = tested on: A549 NSCLC
# NCI-H23 lung = tested on: NCI-H23 lung
# SK-MEL-28 melanoma = tested on: SK-MEL-28 melanoma
# NCI-H226 lung = tested on: NCI-H226 lung
# A498 renal = tested on: A498 renal
# MDA-MB-468 breast = tested on: MDA-MB-468 breast
# OVCAR-8 ovarian = tested on: OVCAR-8 ovarian
# PC-3 prostate = tested on: PC-3 prostate
# OVCAR-3 ovarian = tested on: OVCAR-3 ovarian
# HOP-62 NSCLC = tested on: HOP-62 NSCLC
# SF-295 CNS = tested on: SF-295 CNS
# HS 578T breast = tested on: HS 578T breast
# HL-60(TB) leukemia = tested on: HL-60(TB) leukemia
# KM12 colon = tested on: KM12 colon
# HT29 colon = tested on: HT29 colon
# MCF7 breast = tested on: MCF7 breast
# 786-0 renal = tested on: 786-0 renal
# SNB-75 CNS = tested on: SNB-75 CNS
# ACHN renal = tested on: ACHN renal
# UACC-62 melanoma = tested on: UACC-62 melanoma
# SNB-19 CNS = tested on: SNB-19 CNS
# MALME-3M melanoma = tested on: MALME-3M melanoma
# HOP-92 NSCLC = tested on: HOP-92 NSCLC
# COLO 205 colon = tested on: COLO 205 colon
# SF-268 CNS = tested on: SF-268 CNS
# SN12C renal = tested on: SN12C renal
# RXF 393 renal = tested on: RXF 393 renal
# UACC-257 melanoma = tested on: UACC-257 melanoma
# EKVX NSCLC = tested on: EKVX NSCLC
# MOLT-4 leukemia = tested on: MOLT-4 leukemia
# IGROV1 ovarian = tested on: IGROV1 ovarian
# OVCAR-4 ovarian = tested on: OVCAR-4 ovarian
smiles,measurement,setting,value
C=CC(=O)Nc1cccc(Nc2nc(Nc3ccc(N4CCN(C(C)=O)CC4)cc3OC)ncc2C(F)(F)F)c1,GI50,HCC-2998 colon,1.4 µM
same,TGI,HCC-2998 colon,8.2 µM
same,GI50,HCT-116 colon,3.04 µM
same,TGI,HCT-116 colon,13.1 µM
same,GI50,CAKI-1 renal,1.91 µM
same,TGI,CAKI-1 renal,6.28 µM
same,GI50,MDA-MB-231 breast,3.46 µM
same,TGI,MDA-MB-231 breast,17.6 µM
same,GI50,NCI-H322M lung,1.22 µM
same,TGI,NCI-H322M lung,3.35 µM
same,GI50,UO-31 renal,2.26 µM
same,TGI,UO-31 renal,9.61 µM
same,GI50,M14 melanoma,1.94 µM
same,TGI,M14 melanoma,8.31 µM
same,GI50,OVCAR-5 ovarian,2.33 µM
same,TGI,OVCAR-5 ovarian,14.6 µM
same,GI50,U251 glioblastoma,5.04 µM
same,TGI,U251 glioblastoma,17.2 µM
same,GI50,SF-539 CNS,3.46 µM
same,TGI,SF-539 CNS,14.1 µM
same,GI50,HCT-15 colon,2.17 µM
same,TGI,HCT-15 colon,8.75 µM
same,GI50,DU-145 prostate,3.51 µM
same,TGI,DU-145 prostate,14 µM
same,GI50,RPMI-8226 leukemia,1.89 µM
same,TGI,RPMI-8226 leukemia,5.16 µM
same,GI50,SK-MEL-5 melanoma,1.83 µM
same,TGI,SK-MEL-5 melanoma,8.62 µM
same,GI50,SK-OV-3 ovarian,2.03 µM
same,TGI,SK-OV-3 ovarian,9.89 µM
same,GI50,K-562 leukemia,3.76 µM
same,TGI,K-562 leukemia,13.5 µM
same,GI50,BT-549 breast,2.87 µM
same,TGI,BT-549 breast,10.2 µM
same,GI50,MDA-MB-435 melanoma,4.73 µM
same,TGI,MDA-MB-435 melanoma,17.1 µM
same,GI50,TK-10 renal,1.62 µM
same,TGI,TK-10 renal,4.78 µM
same,GI50,NCI-H460 NSCLC,2.71 µM
same,TGI,NCI-H460 NSCLC,7.5 µM
same,GI50,LOX IMVI melanoma,2.64 µM
same,TGI,LOX IMVI melanoma,10.4 µM
same,GI50,NCI-H522 lung,0.288 µM
same,TGI,NCI-H522 lung,1.55 µM
same,GI50,NCI/ADR-RES ovarian,10.6 µM
same,TGI,NCI/ADR-RES ovarian,22.7 µM
same,GI50,SW-620 colon,1.75 µM
same,TGI,SW-620 colon,3.45 µM
same,GI50,T-47D breast,1.44 µM
same,TGI,T-47D breast,5.28 µM
same,GI50,CCRF-CEM leukemia,1.64 µM
same,TGI,CCRF-CEM leukemia,3.22 µM
same,GI50,A549 NSCLC,0.597 µM
same,TGI,A549 NSCLC,4.84 µM
same,GI50,NCI-H23 lung,1.94 µM
same,TGI,NCI-H23 lung,6.87 µM
same,GI50,SK-MEL-28 melanoma,10.2 µM
same,TGI,SK-MEL-28 melanoma,23.9 µM
same,GI50,NCI-H226 lung,1.38 µM
same,TGI,NCI-H226 lung,6.51 µM
same,GI50,A498 renal,1.81 µM
same,TGI,A498 renal,9.76 µM
same,GI50,MDA-MB-468 breast,0.157 µM
same,TGI,MDA-MB-468 breast,0.81 µM
same,GI50,OVCAR-8 ovarian,2.83 µM
same,TGI,OVCAR-8 ovarian,10.2 µM
same,GI50,PC-3 prostate,4.33 µM
same,TGI,PC-3 prostate,15.9 µM
same,GI50,OVCAR-3 ovarian,2.05 µM
same,TGI,OVCAR-3 ovarian,5.91 µM
same,GI50,HOP-62 NSCLC,1.97 µM
same,TGI,HOP-62 NSCLC,12.4 µM
same,GI50,SF-295 CNS,6.74 µM
same,TGI,SF-295 CNS,19.8 µM
same,GI50,HS 578T breast,1.9 µM
same,TGI,HS 578T breast,6.58 µM
same,GI50,HL-60(TB) leukemia,1.4 µM
same,TGI,HL-60(TB) leukemia,2.74 µM
same,GI50,KM12 colon,2.16 µM
same,TGI,KM12 colon,14.4 µM
same,GI50,HT29 colon,1.8 µM
same,TGI,HT29 colon,5.07 µM
same,GI50,MCF7 breast,0.905 µM
same,TGI,MCF7 breast,5.28 µM
same,GI50,786-0 renal,2.61 µM
same,TGI,786-0 renal,13.7 µM
same,GI50,SNB-75 CNS,2.98 µM
same,TGI,SNB-75 CNS,12.2 µM
same,GI50,ACHN renal,1.94 µM
same,TGI,ACHN renal,19 µM
same,GI50,UACC-62 melanoma,2.36 µM
same,TGI,UACC-62 melanoma,11.8 µM
same,GI50,SNB-19 CNS,8.32 µM
same,TGI,SNB-19 CNS,20.9 µM
same,GI50,MALME-3M melanoma,2.39 µM
same,TGI,MALME-3M melanoma,8.83 µM
same,GI50,HOP-92 NSCLC,2.06 µM
same,TGI,HOP-92 NSCLC,7.69 µM
same,GI50,COLO 205 colon,1.34 µM
same,TGI,COLO 205 colon,3.19 µM
same,GI50,SF-268 CNS,0.268 µM
same,TGI,SF-268 CNS,2.24 µM
same,GI50,SN12C renal,2.07 µM
same,TGI,SN12C renal,9.13 µM
same,GI50,RXF 393 renal,1.88 µM
same,TGI,RXF 393 renal,6.6 µM
same,GI50,UACC-257 melanoma,2.54 µM
same,TGI,UACC-257 melanoma,11.1 µM
same,GI50,EKVX NSCLC,1.07 µM
same,TGI,EKVX NSCLC,3.72 µM
same,GI50,MOLT-4 leukemia,0.521 µM
same,TGI,MOLT-4 leukemia,1.87 µM
same,GI50,IGROV1 ovarian,0.493 µM
same,TGI,IGROV1 ovarian,2.09 µM
same,GI50,OVCAR-4 ovarian,4.33 µM
same,TGI,OVCAR-4 ovarian,34.6 µM
